From patent publication US11767310B2, “Nicotinamide RIPK1 inhibitors” (AbbVie Inc., priority 2021, dated 2023)
Marks after values point to notes of the source that are not given here.

Legend:
[1] = Prodrug bioconversion in intestinal S9 cell fractions; format: in vitro ADME
Procedure: (§1) Phosphatase enzymes are […] expressed with unique tissue specific isoforms and are key catalysts in the conversion of phosphate-containing prodrugs. To determine if exemplary phosphate prodrug compounds of the invention are enzymatically converted to the parent molecule across relevant species, the prodrug compounds were incubated with intestinal S9 cell fractions obtained from mouse, rat, dog, monkey, and human.
[…] Incubations were conducted in the absence and presence of 1 mM sodium orthovanadate, a phosphatase inhibitor. Prodrug depletion and parent formation were monitored by LC-MS/MS and normalized to internal standard as the analyte peak area ratio.

[2] = as above; format: in vitro ADME; details: 0.25 mg/mL
Procedure: as §1
Phosphate prodrugs were incubated (1 μM) for up to 2 hours in Tris-Cl buffer (pH 7.4) containing 3 mM magnesium chloride, intestinal S9 protein ([…] (ms, rat, hu, Table F) from mouse, rat, dog, monkey or human. Incubations were conducted in the absence and presence of 1 mM sodium orthovanadate, a phosphatase inhibitor. Prodrug depletion and parent formation were monitored by LC-MS/MS and normalized to internal standard as the analyte peak area ratio.

U937 cells = assay: U937 TNF/zVAD Cytotoxicity Cell Assay; format: cell-based; details: Homo sapiens, U-937; TNFα 10 ng/mL + Z-VAD FMK 20 μM, 16-20 hours; read-out: U937 TNF/zVAD Induced Cytotoxicity IC50
Procedure: Compounds were tested for their ability to prevent TNF induced necroptosis in U937 cells. Treatment with TNF and the caspase inhibitor zVAD-FMK results in the activation and phosphorylation of RIPK1 and subsequent phosphorylation of RIPK3 and MLKL (Mixed Lineage Kinase Domain Like Pseudokinase), leading to induction of necroptotic cell death that is measured as a reduction in cell viability. Similar U937 assay protocols have been previously described; see, e.g., Harris et al., ACS Med. Chem. Letters (2013) 4:1238-1243 and Supplementary Information.
Test compounds were solvated in dimethyl sulfoxide (DMSO) and 3-fold serially diluted from 10 uM to 0.0005 uM with technical duplicates into an empty 384 well plate. U937 cells were resuspended at a concentration of 500,000 cells/mL in fresh RPMI (Roswell Park Memorial Institute) 1640 growth medium containing 10% heat inactivated fetal bovine serum (FB1S) and seeded into a 384 well plate containing compounds and incubated for 1 hour at 37° C. Following incubation, the cells were challenged with TNFα (final concentration of 10 ng/mL) and Z-VAD FMK (N-Benzyloxycarbonyl-Val-Ala-Asp(O-Me) fluoromethyl ketone; final concentration of 20 μM) for 16-20 hours at 37° C. Following the incubation with TNFα/Z-VAD, cells were lysed with Cell Titer-Glo and incubated for 5-10 minutes. The plate was then read on an Envision plate reader. Data was normalized and analyzed with Studies from Dotmatics.

[3] = Human, 0.01 mg/mL S9 protein, Table F
[4] = Human, 0.25 mg/mL S9 protein, Table F
[5] = Human, 0.25 mg/mL, Experiment 1
[6] = Human, 0.25 mg/mL, Experiment 2
[7] = Human, 0.25 mg/mL, Experiment 3
[8] = Human, 0.25 mg/mL, Mean of 3 experiments
[9] = Mouse, 0.01 mg/mL S9 protein, Table F
[10] = Mouse, 0.25 mg/mL S9 protein, Table F
[11] = Mouse, 0.25 mg/mL, Experiment 1
[12] = Mouse, 0.25 mg/mL, Experiment 2
[13] = Mouse, 0.25 mg/mL, Experiment 3
[14] = Mouse, 0.25 mg/mL, Mean of 3 experiments
[15] = Rat, 0.01 mg/mL S9 protein, Table F
[16] = Rat, 0.25 mg/mL S9 protein, Table F
[17] = Rat, 0.25 mg/mL, Mean of 3 experiments

SMILES	Clint (prodrug disappearance) [1, 3]	Clint (prodrug disappearance) [1, 4]	Clint (prodrug disappearance) [1, 5]	Clint (prodrug disappearance) [1, 6]	Clint (prodrug disappearance) [1, 7]	Clint (prodrug disappearance) [1, 8]	Clint (prodrug disappearance) [1, 9]	Clint (prodrug disappearance) [1, 10]	Clint (prodrug disappearance) [1, 11]	Clint (prodrug disappearance) [1, 12]	Clint (prodrug disappearance) [1, 13]	Clint (prodrug disappearance) [1, 14]	Clint (prodrug disappearance) [1, 15]	Clint (prodrug disappearance) [1, 16]	Clint (prodrug disappearance) ([1]; Rat, 0.25 mg/mL, Experiment 1)	Clint (prodrug disappearance) ([1]; Rat, 0.25 mg/mL, Experiment 2)	Clint (prodrug disappearance) ([1]; Rat, 0.25 mg/mL, Experiment 3)	Clint (prodrug disappearance) [1, 17]	Clint (prodrug disappearance) ([2]; Dog, Experiment 1)	Clint (prodrug disappearance) ([2]; Dog, Experiment 2)	further results
CN(C[C@H](Cc1ccccc1)OC(=O)CN)C(=O)c1cncc(C#Cc2cnn(C(F)F)c2)c1 [Example 21, (S)-1-(5-((1-(difluoromethyl)-1H-pyrazol-4-yl)ethynyl)-N-methylnicotinamido)-3-phenylpropan-2-yl 2-aminoacetate, hydrochloric acid]	815.9 μL/min/mg intestinal S9 protein	592.9 μL/min/mg intestinal S9 protein	391 μL/min/mg intestinal S9 protein	400 μL/min/mg intestinal S9 protein	355 μL/min/mg intestinal S9 protein	382 μL/min/mg intestinal S9 protein	11160 μL/min/mg intestinal S9 protein	>4166.5* μL/min/mg intestinal S9 protein	>480* μL/min/mg intestinal S9 protein	>480* μL/min/mg intestinal S9 protein	>480* μL/min/mg intestinal S9 protein	>480* μL/min/mg intestinal S9 protein	2599.5 μL/min/mg intestinal S9 protein	901.6 μL/min/mg intestinal S9 protein	396 μL/min/mg intestinal S9 protein	719 μL/min/mg intestinal S9 protein	750 μL/min/mg intestinal S9 protein	622 μL/min/mg intestinal S9 protein	5.62 μL/min/mg intestinal S9 protein	16.1 μL/min/mg intestinal S9 protein	Clint (prodrug disappearance) ([2]; Dog, Experiment 3): 14.3 μL/min/mg intestinal S9 protein; Clint (prodrug disappearance) ([2]; Dog, Mean of 3 experiments): 12.0 μL/min/mg intestinal S9 protein; Clint (prodrug disappearance) ([2]; Monkey, Experiment 1): 89.6 μL/min/mg intestinal S9 protein; Clint (prodrug disappearance) ([2]; Monkey, Experiment 2): 91.3 μL/min/mg intestinal S9 protein; Clint (prodrug disappearance) ([2]; Monkey, Experiment 3): 90.7 μL/min/mg intestinal S9 protein; Clint (prodrug disappearance) ([2]; Monkey, Mean of 3 experiments): 90.5 μL/min/mg intestinal S9 protein
CN(C[C@H](Cc1ccccc1)OC(=O)CN)C(=O)c1cncc(C#Cc2cnn(C)n2)c1 [Example 25, (S)-1-(N-methyl-5-((2-methyl-2H-1,2,3-triazol-4-yl)ethynyl)nicotinamido)-3-phenylpropan-2-yl 2-aminoacetate, hydrochloric acid]	378.1 μL/min/mg intestinal S9 protein	410 μL/min/mg intestinal S9 protein	272 μL/min/mg intestinal S9 protein	294 μL/min/mg intestinal S9 protein	293 μL/min/mg intestinal S9 protein	286 μL/min/mg intestinal S9 protein	6821.9 μL/min/mg intestinal S9 protein	>1640.7* μL/min/mg intestinal S9 protein	>480* μL/min/mg intestinal S9 protein	>480* μL/min/mg intestinal S9 protein	>480* μL/min/mg intestinal S9 protein	>480* μL/min/mg intestinal S9 protein	1087.6 μL/min/mg intestinal S9 protein	393.8 μL/min/mg intestinal S9 protein	217 μL/min/mg intestinal S9 protein	318 μL/min/mg intestinal S9 protein	299 μL/min/mg intestinal S9 protein	278 μL/min/mg intestinal S9 protein	10.2 μL/min/mg intestinal S9 protein	14.4 μL/min/mg intestinal S9 protein	Clint (prodrug disappearance) ([2]; Dog, Experiment 3): 11.5 μL/min/mg intestinal S9 protein; Clint (prodrug disappearance) ([2]; Dog, Mean of 3 experiments): 12.0 μL/min/mg intestinal S9 protein; Clint (prodrug disappearance) ([2]; Monkey, Experiment 1): 38.1 μL/min/mg intestinal S9 protein; Clint (prodrug disappearance) ([2]; Monkey, Experiment 2): 49.0 μL/min/mg intestinal S9 protein; Clint (prodrug disappearance) ([2]; Monkey, Experiment 3): 40.7 μL/min/mg intestinal S9 protein; Clint (prodrug disappearance) ([2]; Monkey, Mean of 3 experiments): 42.6 μL/min/mg intestinal S9 protein
Cc1ncc(C(=O)NC[C@@H](O)Cc2ccccc2)cc1C#Cc1cncs1 [Example 16, (S)-N-(2-hydroxy-3-phenylpropyl)-6-methyl-5-(thiazol-5-ylethynyl)nicotinamide]																					IC50 (U937 cells): 2580 nM
Cc1ncc(C(=O)N(C)C[C@@H](O)Cc2ccccc2)cc1C#Cc1cnn(C)c1 [Example 14, (S)-N-(2-hydroxy-3-phenylpropyl)-N,6-dimethyl-5-((1-methyl-1H-pyrazol-4-yl)ethynyl)nicotinamide]																					IC50 (U937 cells): 18 nM
CN(C[C@@H](O)Cc1ccccc1)C(=O)c1cncc(C#Cc2cnn(C)c2)c1 [Example 1, (S)-N-(2-hydroxy-3-phenylpropyl)-N-methyl-5-((1-methyl-1H-pyrazol-4-yl)ethynyl)nicotinamide]																					IC50 (U937 cells): 34 nM
CN(C[C@H](Cc1ccccc1)OP(=O)(O)O)C(=O)c1cncc(C#Cc2cnn(C)n2)c1 [Example 23, (S)-1-(N-methyl-5-((2-methyl-2H-1,2,3-triazol-4-yl)ethynyl)nicotinamido)-3-phenylpropan-2-yl dihydrogen phosphate]	1180.2 μL/min/mg intestinal S9 protein	243.4 μL/min/mg intestinal S9 protein	199 μL/min/mg intestinal S9 protein	241 μL/min/mg intestinal S9 protein	203 μL/min/mg intestinal S9 protein	214 μL/min/mg intestinal S9 protein	<137** μL/min/mg intestinal S9 protein	23.3 μL/min/mg intestinal S9 protein	26.2 μL/min/mg intestinal S9 protein	34.3 μL/min/mg intestinal S9 protein	31.3 μL/min/mg intestinal S9 protein	30.6 μL/min/mg intestinal S9 protein	<137** μL/min/mg intestinal S9 protein	36.7 μL/min/mg intestinal S9 protein	29.1 μL/min/mg intestinal S9 protein	33.8 μL/min/mg intestinal S9 protein	28.2 μL/min/mg intestinal S9 protein	30.4 μL/min/mg intestinal S9 protein	354 μL/min/mg intestinal S9 protein	369 μL/min/mg intestinal S9 protein	Clint (prodrug disappearance) ([2]; Dog, Experiment 3): 345 μL/min/mg intestinal S9 protein; Clint (prodrug disappearance) ([2]; Dog, Mean of 3 experiments): 356 μL/min/mg intestinal S9 protein; Clint (prodrug disappearance) ([2]; Monkey, Experiment 1): 55.4 μL/min/mg intestinal S9 protein; Clint (prodrug disappearance) ([2]; Monkey, Experiment 2): 47.7 μL/min/mg intestinal S9 protein; Clint (prodrug disappearance) ([2]; Monkey, Experiment 3): 48.1 μL/min/mg intestinal S9 protein; Clint (prodrug disappearance) ([2]; Monkey, Mean of 3 experiments): 50.4 μL/min/mg intestinal S9 protein
